Assay [1] deals with PPRE-driven luciferase activity. Briefly: PPRE-luciferase assay in Ppara-null hippocampal neurons transduced with Ppara constructs. The format is cell-based, mouse. As to the method:
Astrocytes plated at 60-70% confluence were transfected with tk-PPREx3-Luc, a PPRE-dependent luciferase reporter construct. After 24 h of transfection, cells were treated with different concentrations of HEX (FIG. 10A), OCT (FIG. 10B) and HMB (FIG. 10C) for 4 h followed by monitoring luciferase activity. Under similar experimental condition, MTT was performed to understand the effect of these ligands on cell viability (FIG. 10D, HEX; FIG. 10E, OCT; FIG. 10F, HMB). Results are mean±SD of three independent experiments. ^ap<0.001 vs. control. Ppara-null astrocytes were transduced with lentivirions containing empty vector (FIG. 10G), FL-Ppara (FIG. 10H), Y314D-Ppara (FIG. 10I), Y464D-Ppara (FIG. 10J), and Y314D/Y464D-Ppara (FIG. 10K) for 48 h followed by transfection with tk-PPREx3-Luc. After 24 h of transfection, cells were treated with different doses of HEX, OCT and HMB for 4 h followed by monitoring luciferase activity. PPRE luciferase activity was assayed in Ppara-null astrocytes transduced with lentivirions containing empty vector (FIG. 10L), FL-Ppara (FIG. 10M), Y314D-Ppara (FIG. 10N), Y464D-Ppara (FIG. 10O), and Y314D/Y464D-Ppara (FIG. 10P) after treatment with different doses of WY14643, fenofibrate, and clofibrate. PPRE luciferase activity was assayed in primary hippocampal neurons transduced with lentivirions containing empty vector (FIG. 10Q), FL-Ppara (FIG. 10R), Y314D-Ppara (FIG. 10S), Y464D-Ppara (FIG. 10T), and Y314D/Y464D-Ppara (FIG. 10U) after treatment with different doses of HEX, OCT and HMB. Results are mean±SD of three independent experiments. ^ap<0.001 vs. control.
Isolation of Mouse Hippocampal Neurons: Hippocampal neurons were isolated from fetuses (E18) of pregnant female Ppara-null and strain-matched WT littermate mice as described by us^6,13,35-36 with some modifications. Briefly, dissection and isolation procedures were performed in an ice-cold, sucrose buffer solution (sucrose 0.32 M, Tris 0.025 M; pH 7.4)^37. The skin and the skull were carefully removed from the brain by scissors followed by peeling off the meninges by a pair of fine tweezers. Next, a fine incision was made in the middle line around the circle of Willis and medial temporal lobe was opened up. Hippocampus was isolated as a thin slice of tissue located near the cortical edge of medial temporal lobe. Hippocampal tissues isolated from all fetal pups (n>10) were combined together and homogenized with 1 ml of trypsin for 5 minutes at 37° C. followed by neutralization of trypsin. The single cell suspension of hippocampal tissue was plated in the poly-D-lysine pre-coated 75 mm flask. Five min after plating, the supernatants were carefully removed and replaced with complete neurobasal media. The next day, 10 μM AraC was added to remove glial contamination in the neuronal culture. The pure cultures of hippocampal neurons were allowed to differentiate fully for 9-10 days before treatment^35,36,38.

Assay [2] concerns NMDA-driven calcium influx. Briefly: NMDA-driven calcium influx in transduced Ppara-null hippocampal neurons. The assay is classed as cell-based, mouse. As to the method: Ppara-null hippocampal neurons were transduced with lentivirions containing GFP (vector), FL-Ppara, and Y464D-Ppara for 48 h followed by treatment with vehicle (DMSO) (FIG. 11A), OCT (FIG. 11B), HEX (FIG. 11C), HMB (FIG. 11D), and WY14643 (FIG. 11E) for 24 h. Then neurons were stained for phalloidin to measure spine density. FIG. 11F) A representative picture of dendrite with spines (Cyan color) used for counting area of spine heads. Area of spine heads (FIG. 11G) and number of spines (FIG. 11H) in 10 μm of dendrites. Results are mean±SEM of 5 neurons per group. ^ap<0.05 vs vector only; ^bp<0.05 vs FL-Ppara. AMPA-driven calcium influx was measured in OCT (red), HEX (green) and HMB (purple)-treated Ppara-null hippocampal neurons transduced with lentivirions containing FL-Ppara (FIG. 11I), Y314D-Ppara (FIG. 11J), Y464D-Ppara (FIG. 11K), and Y314D/Y464D-Ppara (FIG. 11L). All neurons were treated with 50 μM of NMDA receptor antagonist N20C to inhibit passive calcium flow through NMDA receptor. (FIG. 11M-P) Similarly NMDA-driven calcium influx was measured in the lentivius-infected Ppara-null hippocampal neurons in the presence of different endogenous ligands. In these cases, Naspm-HCl was treated to stop the passive flow of calcium currents through AMPA receptor. Results are mean of three independent experiments.

The structures appear in SMILES notation.

Consider `CCOC(=O)C(C)(C)C(C)O` (stereo not drawn) [HMB], for which the PPRE-luciferase activity entry in assay [1] (lenti-Y314D/Y464D-Ppara) and in assay [1] (lenti-Y464D-Ppara) was “completely abrogated” each time. The NMDA-mediated calcium influx entry is on record as “stimulated” in assay [2] (lenti-FL-Ppara), “partially restore” in assay [2] (lenti-Y314D-Ppara), “remained unable to increase” in assay [2] (lenti-Y314D/Y464D-Ppara) and “remained unable to increase” in assay [2] (lenti-Y464D-Ppara).

On to `CCCCCCCCC=CCCCCCCCC(N)=O` [OCT, 9-octadecenamide], for which the PPRE-luciferase activity entry in assay [1] (lenti-Y314D/Y464D-Ppara) and in assay [1] (lenti-Y464D-Ppara) was “completely abrogated” in each case. The NMDA-mediated calcium influx entry in assay [2] (lenti-FL-Ppara) is on record as “stimulated”; in assay [2] (lenti-Y314D-Ppara), “partially restore”; in assay [2] (lenti-Y314D/Y464D-Ppara), “remained unable to increase”; in assay [2] (lenti-Y464D-Ppara), “remained unable to increase”.

`CCCCCCCCCCCCCCCC(N)=O` [HEX, hexadecanamide]: the PPRE-luciferase activity result in assay [1] (lenti-Y314D/Y464D-Ppara) and in assay [1] (lenti-Y464D-Ppara) was “completely abrogated” each time. For the same compound, the NMDA-mediated calcium influx result in assay [2] (lenti-FL-Ppara) was “stimulated”; in assay [2] (lenti-Y314D-Ppara), “partially restore”; in assay [2] (lenti-Y314D/Y464D-Ppara), “remained unable to increase”; in assay [2] (lenti-Y464D-Ppara), “remained unable to increase”.
